These are literature values, as cited in patent US8263648B2, “Diebenzofuran derivatives as inhibitors of PDE-4 and PDE-10” (Mylan Laboratories Ltd., priority 2006, dated 2012).

One data set deals with PDE10A1 (Homo sapiens, UniProt Q9Y233). The note with it: substrate of PDE10A1, a splice variant of PDE10.
The conditions of data set [1]: oral dosages of up to 100 mg/kg.

Chain of PDE10A1 (Q9Y233 1-779 isoform Q9Y233-1): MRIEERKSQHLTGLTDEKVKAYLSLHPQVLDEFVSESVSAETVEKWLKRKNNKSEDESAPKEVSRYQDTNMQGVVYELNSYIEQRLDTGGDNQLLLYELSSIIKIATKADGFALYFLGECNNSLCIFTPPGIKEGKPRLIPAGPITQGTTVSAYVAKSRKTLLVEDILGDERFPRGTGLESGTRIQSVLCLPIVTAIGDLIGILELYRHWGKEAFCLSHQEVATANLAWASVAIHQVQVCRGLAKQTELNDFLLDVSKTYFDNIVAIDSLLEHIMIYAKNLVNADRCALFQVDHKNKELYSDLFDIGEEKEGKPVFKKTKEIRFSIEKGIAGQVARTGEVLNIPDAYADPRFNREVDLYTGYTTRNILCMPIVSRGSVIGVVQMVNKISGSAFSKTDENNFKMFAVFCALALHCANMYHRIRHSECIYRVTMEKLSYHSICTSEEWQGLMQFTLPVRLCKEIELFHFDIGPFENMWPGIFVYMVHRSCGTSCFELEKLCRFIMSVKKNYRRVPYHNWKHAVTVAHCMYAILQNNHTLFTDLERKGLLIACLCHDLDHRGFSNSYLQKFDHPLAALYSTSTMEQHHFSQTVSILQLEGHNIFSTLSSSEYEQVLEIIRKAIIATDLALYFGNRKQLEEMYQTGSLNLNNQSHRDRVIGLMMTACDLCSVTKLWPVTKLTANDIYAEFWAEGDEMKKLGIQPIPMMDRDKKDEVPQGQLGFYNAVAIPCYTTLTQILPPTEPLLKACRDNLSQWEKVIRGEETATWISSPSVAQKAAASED

A word on the Km: it is the substrate concentration at which the rate is half of its maximum. In the case of `Nc1nc2c(ncn2[C@@H]2O[C@@H]3COP(=O)(O)O[C@H]3[C@H]2O)c(=O)[nH]1` [cGMP], the Km on PDE10A1 is 3 µM. Regarding `CS(=O)(=O)Nc1ccc2oc3c(OC(F)F)ccc(C(=O)Nc4c(Cl)cncc4Cl)c3c2c1` [GRC3886], the emetic effect entry in data set [1] is given as “no emetic effect”.
